Literature values, collected in patent publication US20080038403A1, “WEIGHT MANAGEMENT SYSTEM FOR OBESE ANIMALS” (MARS INCORPORATED, priority 2002, published 2008).

How the values were obtained:
[1] = dietary consumption
[2] = dietary consumption; remark: listed apart in the source

1,3-diacylglycerol
body weight [1]: decreases
regional fat deposition [1]: decreases
serum cholesterol levels [2]: lowers
serum triglyceride levels [2]: lowers
